Assay results: ChEMBL document CHEMBL1201862, “PubChem BioAssay data set” (2004)
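Assay format: 96-well plates, 48-hour exposure. GI50: concentration for 50% inhibition of growth.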 Activity calls are given as the source filed them. Rule as the data show it: active = GI50 up to about 1.1 µM and inactive = higher.

How the values were obtained:
Assay in all cases: growth of human tumour cells (NCI), 48 h
DLD-1 = tested on: DLD-1
EKVX = tested on: EKVX
SK-OV-3 = tested on: SK-OV-3
IGROV-1 = tested on: IGROV-1
HT-29 = tested on: HT-29
ACHN = tested on: ACHN
786-0 = tested on: 786-0
OVCAR-5 = tested on: OVCAR-5
COLO 205 = tested on: COLO 205
MOLT-4 = tested on: MOLT-4
SW-620 = tested on: SW-620
SNB-75 = tested on: SNB-75
SN12C = tested on: SN12C
OVCAR-4 = tested on: OVCAR-4
MCF7 = tested on: MCF7
SR = tested on: SR
T47D = tested on: T47D
NCI/ADR-RES = tested on: NCI/ADR-RES
A498 = tested on: A498
SNB-19 = tested on: SNB-19

Measured: GI50

CCOC(=O)C(C)c1c(C(=O)c2ccc(C)nc2)c2ccccc2n1C (stereo not drawn)
inactive: DLD-1 > 100 µM | EKVX > 100 µM | SK-OV-3 > 100 µM | IGROV-1 > 100 µM | HT-29 > 100 µM | ACHN > 100 µM | 786-0 > 100 µM | OVCAR-5 > 100 µM | COLO 205 > 100 µM | MOLT-4 > 100 µM | SW-620 > 100 µM | SNB-75 33.3 µM | SN12C > 100 µM | OVCAR-4 > 100 µM

Cc1ccc([S@+]([O-])c2occc2C=O)cc1
inactive: MCF7 3.48 µM | EKVX 19.8 µM | SK-OV-3 13.6 µM | IGROV-1 11.7 µM | HT-29 7.38 µM | ACHN 15.4 µM | SR 1.71 µM | 786-0 3.95 µM | OVCAR-5 19.2 µM | T47D 2.43 µM | COLO 205 14.9 µM | MOLT-4 1.79 µM | NCI/ADR-RES 11 µM | A498 17.1 µM | SNB-19 5.07 µM | SW-620 1.93 µM | SNB-75 12.1 µM | SN12C 7.26 µM | OVCAR-4 9.98 µM

Cc1cc(N(CCC#N)CCC#N)ccc1/N=N/c1ccc(S(N)(=O)=O)cc1
inactive: DLD-1 > 100 µM | EKVX > 100 µM | SK-OV-3 > 100 µM | IGROV-1 > 100 µM | HT-29 > 100 µM | ACHN > 100 µM | 786-0 > 100 µM | OVCAR-5 > 100 µM | COLO 205 > 100 µM | MOLT-4 > 100 µM | A498 > 100 µM | SNB-19 > 100 µM | SW-620 > 100 µM | SNB-75 > 100 µM | SN12C > 100 µM | OVCAR-4 > 100 µM

COC(=O)[C@@H]1C[C@@]23CCCN4CC[C@@]5(c6cccc(OC)c6N(C=O)[C@]15CC2)[C@@H]43
inactive: MCF7 > 100 µM | EKVX > 100 µM | SK-OV-3 > 100 µM | IGROV-1 > 100 µM | HT-29 > 100 µM | ACHN > 100 µM | SR > 100 µM | 786-0 > 100 µM | OVCAR-5 > 100 µM | T47D > 100 µM | COLO 205 > 100 µM | MOLT-4 > 100 µM | NCI/ADR-RES > 100 µM | A498 > 100 µM | SNB-19 > 100 µM | SW-620 > 100 µM | SNB-75 78.7 µM | SN12C > 100 µM | OVCAR-4 > 100 µM

C=C(CC)C[C@@H]1C[C@]2(C(=O)OC)c3[nH]c4ccccc4c3CCN2C1=O
inactive: MCF7 20.7 µM | EKVX 30.8 µM | SK-OV-3 21 µM | IGROV-1 20.3 µM | HT-29 19.5 µM | ACHN 26.1 µM | SR 29.4 µM | 786-0 16 µM | OVCAR-5 21 µM | T47D 26.2 µM | COLO 205 33.9 µM | MOLT-4 23 µM | NCI/ADR-RES 19.5 µM | A498 17.6 µM | SNB-19 17.8 µM | SW-620 16.4 µM | SNB-75 21.3 µM | SN12C 20 µM | OVCAR-4 37.8 µM

C=C1C(=O)OC2CC(C)C(C(CC(C)=O)OC(C)=O)=CCC12 (stereo not drawn)
inactive: MCF7 4.74 µM | EKVX 11.8 µM | SK-OV-3 37.9 µM | IGROV-1 13.3 µM | HT-29 8.41 µM | ACHN 9.27 µM | SR 2.88 µM | 786-0 2.74 µM | OVCAR-5 17.6 µM | T47D 20.4 µM | COLO 205 6.82 µM | MOLT-4 4.07 µM | NCI/ADR-RES 13.8 µM | A498 18.7 µM | SNB-19 36.6 µM | SW-620 3.03 µM | SNB-75 23.1 µM | SN12C 4.27 µM | OVCAR-4 17 µM

CCOC(=O)C1=C(NC)OC/C1=N\NC(=O)c1ccccc1O
inactive: DLD-1 17.6 µM | EKVX 44.6 µM | SK-OV-3 > 100 µM | IGROV-1 7.21 µM | 786-0 33.4 µM | OVCAR-5 48.3 µM | COLO 205 > 100 µM | MOLT-4 22.9 µM | A498 > 100 µM | SNB-19 12.7 µM | SW-620 31.8 µM | SNB-75 69.3 µM | SN12C 45.9 µM | OVCAR-4 16.3 µM

CCOC(=O)c1cn2c(n1)sc1cc(F)ccc12
inactive: MCF7 46.9 µM | EKVX > 100 µM | SK-OV-3 > 100 µM | IGROV-1 > 100 µM | HT-29 82.8 µM | ACHN > 100 µM | SR 16.1 µM | 786-0 52.8 µM | OVCAR-5 25.2 µM | T47D > 100 µM | COLO 205 > 100 µM | MOLT-4 > 100 µM | NCI/ADR-RES > 100 µM | A498 30.8 µM | SNB-19 > 100 µM | SW-620 > 100 µM | SNB-75 58.5 µM | SN12C > 100 µM | OVCAR-4 > 100 µM

COc1ccc(NS(=O)(=O)c2ccc3ncn(NS(=O)(=O)c4ccc(I)cc4)c(=O)c3c2)cc1
inactive: MCF7 > 100 µM | EKVX > 100 µM | SK-OV-3 > 100 µM | IGROV-1 > 100 µM | HT-29 > 100 µM | ACHN > 100 µM | SR 72.9 µM | 786-0 > 100 µM | OVCAR-5 > 100 µM | T47D > 100 µM | COLO 205 > 100 µM | MOLT-4 > 100 µM | NCI/ADR-RES > 100 µM | A498 > 100 µM | SNB-19 > 100 µM | SW-620 > 100 µM | SNB-75 > 100 µM | SN12C > 100 µM | OVCAR-4 > 100 µM

C#C[C@]1(O)CCC2C3CCc4cc(Oc5nc(F)nc(-c6c7cc8ccccc8cc7c7n6CCS7)n5)ccc4C3CCC21C (stereo partly drawn)
inactive: DLD-1 54.6 µM | EKVX 11.4 µM | SK-OV-3 45.4 µM | IGROV-1 50.7 µM | HT-29 26.2 µM | ACHN > 100 µM | 786-0 51.8 µM | COLO 205 20.6 µM | MOLT-4 49.8 µM | SNB-19 > 100 µM | SW-620 44.3 µM | SNB-75 32.9 µM | SN12C 41.5 µM

COc1cc2c3c(c1OC)/C(=N/OS(=O)(=O)c1ccc(C)cc1)CC3N(S(=O)(=O)c1ccc(C)cc1)CC2 (stereo not drawn)
inactive: DLD-1 > 100 µM | EKVX > 100 µM | SK-OV-3 > 100 µM | IGROV-1 > 100 µM | HT-29 > 100 µM | ACHN > 100 µM | 786-0 > 100 µM | OVCAR-5 > 100 µM | COLO 205 > 100 µM | A498 > 100 µM | SNB-19 > 100 µM | SW-620 > 100 µM | SNB-75 70.5 µM | SN12C > 100 µM | OVCAR-4 > 100 µM

NC(=O)/C(=N\NC(=O)c1cc2ccccc2cc1O)C1C(=O)N(c2ccccc2)N=C1N (stereo not drawn)
inactive: DLD-1 34 µM | EKVX 32.2 µM | IGROV-1 21.1 µM | HT-29 44.2 µM | ACHN 29.9 µM | 786-0 40 µM | OVCAR-5 22.2 µM | COLO 205 28.8 µM | MOLT-4 21.4 µM | A498 1.23 µM | SNB-19 65.3 µM | SW-620 37.2 µM | SNB-75 20.5 µM | SN12C 40.5 µM | OVCAR-4 22.6 µM

Cc1cc2c(=O)cc(-c3ccc(Cl)cc3)oc2c(C(=O)O)c1C
inactive: DLD-1 > 100 µM | EKVX > 100 µM | SK-OV-3 > 100 µM | IGROV-1 > 100 µM | HT-29 > 100 µM | ACHN > 100 µM | 786-0 > 100 µM | OVCAR-5 > 100 µM | COLO 205 > 100 µM | MOLT-4 > 100 µM | SNB-19 > 100 µM | SW-620 > 100 µM | SNB-75 > 100 µM | SN12C > 100 µM | OVCAR-4 > 100 µM

S=P1(c2ccccc2)Nc2ccc(Cl)cc2N1 (stereo not drawn)
inactive: DLD-1 > 100 µM | EKVX > 100 µM | SK-OV-3 37.5 µM | IGROV-1 35.5 µM | HT-29 > 100 µM | ACHN 89.1 µM | 786-0 > 100 µM | OVCAR-5 > 100 µM | COLO 205 19.9 µM | MOLT-4 20 µM | A498 > 100 µM | SNB-19 > 100 µM | SW-620 > 100 µM | OVCAR-4 6.49 µM

O=C(Nc1cc([N+](=O)[O-])cc([N+](=O)[O-])c1)OC1C2CCC1C1OC1C2 (stereo not drawn)
inactive: DLD-1 > 50 µM | EKVX > 50 µM | SK-OV-3 > 50 µM | IGROV-1 > 50 µM | ACHN > 50 µM | 786-0 > 50 µM | OVCAR-5 > 50 µM | COLO 205 > 50 µM | MOLT-4 34.5 µM | A498 > 50 µM | SNB-19 > 50 µM | SW-620 > 50 µM | SNB-75 23.7 µM | OVCAR-4 > 50 µM

CCC(CO)Nc1nc(NCc2ccccc2)c2ncn(C(C)C)c2n1 (stereo not drawn) [(RS)-ROSCOVITINE]
inactive: MCF7 15.7 µM | EKVX 18.2 µM | SK-OV-3 57.8 µM | IGROV-1 14.8 µM | HT-29 18.8 µM | ACHN 18.8 µM | SR 7.1 µM | 786-0 20.2 µM | OVCAR-5 20.7 µM | T47D 32.8 µM | COLO 205 15 µM | MOLT-4 28.5 µM | NCI/ADR-RES 15.4 µM | A498 23.9 µM | SNB-19 34.9 µM | SW-620 25.2 µM | SNB-75 13.8 µM | SN12C 32.7 µM | OVCAR-4 20.2 µM
